Assay results as given in EP4603105A1, “PHARMACEUTICAL COMPOSITION CONTAINING CYCLIC COMPOUND HAVING SELECTIVE KRAS INHIBITORY EFFECT AGAINST HRAS AND NRAS” (CHUGAI SEIYAKU KABUSHIKI KAISHA, priority 2022, dated 2024).
*1 amine or outer side, *2 acyl side, *3 side chain or, on linkers, in order; H or OH if unused. Where a SMILES comes first, the peptide text is derived from it. Bridges are numbered along the chain shown (N, C = ends). [ ]: non-standard residue; d: D form. The star is where a group is joined. X6 = CC(C)(C)CCN([C@@H](Cc1ccc(C(F)(F)F)cc1)C(=O)[*:2])[*:1]; hPhe(3-Cl-4-CF3) = N[C@@H](CCc1ccc(C(F)(F)F)c(Cl)c1)C(=O)O; NMeGly(cPent) = CN[C@H](C(=O)O)C1CCCC1; NMeD = CN[C@@H](CC(=O)O)C(=O)O; NMeL = CN[C@@H](CC(C)C)C(=O)O; Morpholide = C1CN(*)CCO1; NMeA = CN[C@@H](C)C(=O)O; Ac5c = NC1(C(=O)O)CCCC1; Aze = O=C(O)[C@@H]1CCN1; Sar = CNCC(=O)O

Legend:
[1] = tested on: human lung cancer strain NCI-H441; type: cell-based
Outline: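 Signal came from […] measured per well once the reagent was added. Beforehand, cells were cultured at 37°C and 5% carbon dioxide on a compound series serially diluted in dimethyl sulfoxide.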

[2] = target: HRAS wild-type protein (Homo sapiens, UniProt P01112); experiment: Binding to HRAS by surface plasmon resonance (SPR), KD and KD ratio to KRAS
Outline: (§1)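 Recombinant RAS proteins bearing a biotinylated Avi tag and loaded with GDP served as the captured ligand, recaptured fresh every cycle. Binding responses were referenced to an uncoated surface and a buffer-only blank cycle. Dissociation constants were obtained by 1:1 model fitting at 30°C.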

[3] = target: GDP-bound NRAS wild-type protein (Homo sapiens, UniProt P01111); experiment: Binding to NRAS by surface plasmon resonance (SPR), KD and KD ratio to KRAS
Outline: as §1

[4] = target: GDP-bound KRAS wild-type protein (Homo sapiens, UniProt P01116); experiment: Binding to KRAS by surface plasmon resonance (SPR), dissociation constant KD; details: 1:1 binding model
Outline: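 Compound binding is evaluated by SPR single-cycle kinetics, with concentrations added intermittently from low to high for 75 s each. Target surfaces carry GDP-loaded biotinylated Avi-RAS at about 100–300 RU, regenerated after each cycle; temperature 30°C. A 1:1 binding model gives KD.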

[5] = ratio of the KD value with respect to HRAS wild-type protein to the KD value with respect to KRAS
[6] = ratio of the KD value with respect to GDP-bound NRAS wild-type protein to the KD value with respect to KRAS
[7] = ratio of KD for HRAS wild-type protein to KD for KRAS
[8] = ratio of KD for GDP-bound NRAS wild-type protein to KD for KRAS

Sequence of GDP-bound NRAS wild-type protein (P01111 whole entry): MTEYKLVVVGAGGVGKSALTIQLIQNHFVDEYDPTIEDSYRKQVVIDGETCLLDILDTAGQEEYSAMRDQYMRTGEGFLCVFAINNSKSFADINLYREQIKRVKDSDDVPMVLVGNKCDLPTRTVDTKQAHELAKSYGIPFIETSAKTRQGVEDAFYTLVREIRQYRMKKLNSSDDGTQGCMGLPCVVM
Sequence of HRAS wild-type protein (P01112 whole entry): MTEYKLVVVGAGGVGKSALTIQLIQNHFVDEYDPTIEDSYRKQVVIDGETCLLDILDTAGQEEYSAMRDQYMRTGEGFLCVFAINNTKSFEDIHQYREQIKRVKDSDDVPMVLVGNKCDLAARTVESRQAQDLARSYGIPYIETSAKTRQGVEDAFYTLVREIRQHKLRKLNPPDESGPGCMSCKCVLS
Sequence of GDP-bound KRAS wild-type protein (P01116 1-188 isoform P01116-2): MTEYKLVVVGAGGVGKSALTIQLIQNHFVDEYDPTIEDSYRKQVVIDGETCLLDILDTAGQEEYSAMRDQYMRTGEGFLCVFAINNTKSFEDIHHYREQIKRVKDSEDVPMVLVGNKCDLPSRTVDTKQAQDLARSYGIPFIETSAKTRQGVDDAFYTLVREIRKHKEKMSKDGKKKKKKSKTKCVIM

| Structure (SMILES) | IC50 [1] | HRAS /KRAS [2, 5] | NRAS /KRAS [3, 6] | Kd ([4]; Single Cycle Kinetics) | HRAS /KRAS [2, 7] | NRAS /KRAS [3, 8] | Kd [4] | HRAS /KRAS ([2]; ratio of KD value for HRAS wild-type protein to KD value for KRAS (SPR)) | NRAS /KRAS ([3]; ratio of KD value for GDP-bound NRAS wild-type protein to KD value for KRAS (SPR)) |
| --- | --- | --- | --- | --- | --- | --- | --- | --- | --- |
| CCC[C@H]1C(=O)N[C@@H](C2CCCC2)C(=O)N(C)CC(=O)N(C)[C@H]2C/C=C\CCN(C2=O)[C@@H](Cc2ccc(C)cc2)C(=O)N(C)CC(=O)N[C@@H](CCc2ccc(C(F)(F)F)c(Cl)c2)C(=O)N2C[C@H](OCC)C[C@H]2C(=O)NC2(CC(C)(C)C2)C(=O)N(C)[C@@H](CC(C)C)C(=O)N(C)[C@H](C(=O)N(C)C)CC(=O)N1C [PP2190] | 84.5 nM | A (a compound having 10 or more and less than 20 is denoted as A) | A (a compound having 10 or more and less than 20 is denoted as A) | 0.91 nM |  |  |  |  |  |
| CCCOC[C@H]1C(=O)N[C@@H]([C@@H](C)CC)C(=O)N(C)CC(=O)N(C)[C@H]2C/C=C\CCN(C2=O)[C@@H](Cc2ccc(C(F)(F)F)cc2)C(=O)N(C)CC(=O)N[C@@H](CCc2ccc(C(F)(F)F)c(OC)c2)C(=O)N2C[C@H](OCC)C[C@H]2C(=O)NC2(CCC2)C(=O)N(C)[C@@H](C2CCCC2)C(=O)N(C)[C@H](C(=O)N(C)CCC)CC(=O)N1C [PP2017] | 2.5 nM | A (a compound having 10 or more and less than 20 is denoted as A) | A (a compound having 10 or more and less than 20 is denoted as A) | 0.093 nM |  |  |  |  |  |
| CCO[C@@H]1C[C@H]2C(=O)NC3(CC(C)(C)C3)C(=O)N(C)[C@@H](C3CCCC3)C(=O)N(C)[C@H](C(=O)N(C)C)CC(=O)N(C)[C@@H]([C@@H](C)OC)C(=O)N[C@@H]([C@@H](C)CC)C(=O)N(C3CC3)CC(=O)N(C)[C@H]3C/C=C\CCN(C3=O)[C@@H](Cc3ccc(C)cc3)C(=O)N(C)CC(=O)N[C@@H](CCc3ccc(C(F)(F)F)c(Cl)c3)C(=O)N2C1 [PP3212] | 16.6 nM |  |  |  | A (a compound having 10 or more and less than 20 is denoted as A) | A (a compound having 10 or more and less than 20 is denoted as A) | 0.3 nM |  |  |
| CC[C@H](C)[C@@H]1NC(=O)[C@H](CC2CC2)N(C)C(=O)C[C@@H](C(=O)N2CCCC2)N(C)C(=O)[C@H](C2CCCC2)N(C)C(=O)C2(CCCC2)NC(=O)[C@@H]2C[C@@H](C(F)(F)F)CN2C(=O)[C@H](CCc2cc(F)c(C(F)(F)F)c(F)c2)NC(=O)CN(C)C(=O)[C@H](Cc2ccc(F)cc2)N2CC/C=C\C[C@@H](C2=O)N(C)C(=O)CN(C)C1=O [PP1509] | 67.9 nM |  |  | 0.4 nM |  |  |  | A (a compound having 10 or more and less than 20 is denoted as A) | A (a compound having 10 or more and less than 20 is denoted as A) |
| CCC[C@H]1C(=O)N[C@@H]([C@@H](C)CC)C(=O)N(C2CC2)CC(=O)N(C)[C@H]2C/C=C\CCN(C2=O)[C@@H](Cc2ccc(C)cc2)C(=O)N(C)CC(=O)N[C@@H](CCc2ccc(C(F)(F)F)c(CC)c2)C(=O)N2C[C@H](OCC)C[C@H]2C(=O)NC2(CC(C)(C)C2)C(=O)N(C)[C@@H](C2CCCC2)C(=O)N(C)[C@H](C(=O)N(C)C)CC(=O)N1C [PP2870] | 11.5 nM |  |  |  | A (a compound having 10 or more and less than 20 is denoted as A) | A (a compound having 10 or more and less than 20 is denoted as A) | 0.58 nM |  |  |
| CC[C@H](C)[C@@H]1NC(=O)[C@H](CC(C)C)N(C)C(=O)C[C@@H](C(=O)N2CCOCC2)N(C)C(=O)[C@H](C2CCCC2)N(C)C(=O)C2(CCCC2)NC(=O)[C@@H]2CCCN2C(=O)[C@H](CCc2ccc(C(F)(F)F)c(Cl)c2)NC(=O)CN(C)C(=O)[C@H](Cc2ccc(C(F)(F)F)cc2)N(CCC(C)(C)C)C(=O)[C@@H]2CCN2C(=O)[C@H](C)N(C)C1=O [PP0113] ([NMeL]I[NMeA][Aze][X6][Sar][hPhe(3-Cl-4-CF3)]P[Ac5c][NMeGly(cPent)][NMeD]-Morpholide; lactam N-11) | 7.1 nM |  |  |  | B (a compound having 3 or more and less than 10 is denoted as B) | C (A compound having a KD ratio of 0.1 or more and less than 3 is denoted as C) | 0.75 nM |  |  |
